According to patent US8076356B2, “Triazolopyridinylsulfanyl derivatives as P38 map kinase inhibitors” (Pfizer Inc., priority 2004, dated 2011):

system: TNFα release from human peripheral blood mononuclear cells; test: TNFα screen; format: cell-based; conditions: LPS-stimulated human peripheral blood mononuclear cells, 18 hours incubation, TNFα in supernatant by ELISA; read-out: TNF IC50
Protocol: Venous blood is collected from healthy volunteers and the mononuclear cells purified by centrifugation through Histopaque (Ficoll) cushions. TNFα production from these cells is stimulated by addition of lipopolysaccharide. After 18 hours incubation in the presence of LPS, the cell supernatant is removed and the concentration of TNFα in the supernatant determined by ELISA.

SMILES	IC50
CNC(=O)c1ccc(-n2nc(C(C)(C)C)cc2NC(=O)NCc2ccccc2Sc2ccc3nnc(C(C)C)n3c2)cc1 [Example 118]	15.7 nM
CSC(C)(C)c1cc(NC(=O)NCc2ccccc2Sc2ccc3nnc(C(C)C)n3c2)n(-c2ccc(OCCO)cc2)n1 [Example 125]	80 nM
CC(C)(C)c1cc(NC(=O)NCc2ccccc2Sc2ccc3nnc(-c4cccc(O)c4Cl)n3c2)n(-c2ccc(F)c(F)c2)n1 [Example 128]	3.7 nM
CCc1ccccc1-c1nnc2ccc(Sc3ccccc3CNC(=O)Nc3cc(C(C)(C)SC)nn3-c3ccc(O)cc3)cn12 [Example 132]	4.5 nM
CSC(C)(C)c1cc(NC(=O)NCc2ccccc2Sc2ccc3nnc(C(C)C)n3c2)n(-c2cc(C)cc(C)c2)n1 [Example 136]	1 nM
CSC(C)(C)c1cc(NC(=O)NCc2ccccc2Sc2ccc3nnc(-c4ccccc4C(C)C)n3c2)n(-c2ccc(O)cc2)n1 [Example 142]	2.2 nM
CSC(C)(C)c1cc(NC(=O)NCc2ccccc2Sc2ccc3nnc(-c4ccc(C)cc4O)n3c2)n(-c2cccc(C)c2)n1 [Example 151]	1.4 nM
CSC(C)(C)c1cc(NC(=O)NCc2ccccc2Sc2ccc3nnc(-c4cccc(Cl)c4O)n3c2)n(-c2cccc(C)c2)n1 [Example 152]	4.9 nM
CC(C)(C)c1cc(NC(=O)NCc2ccccc2Sc2ccc3nnc(-c4ccccc4SCCO)n3c2)n(-c2cccc(O)c2)n1 [Example 179]	1.5 nM
CC(C)c1nnc2ccc(Sc3ccccc3CNC(=O)Nc3cc(C(C)(C)C)nn3-c3ccccn3)cn12 [Example 180]	21 nM
CC(C)c1nnc2ccc(Sc3ccccc3CNC(=O)Nc3cc(C(C)(C)C)nn3-c3cccc4cnccc34)cn12 [Example 181]	2.7 nM
CCC(C)(C)c1cc(NC(=O)NCc2ccccc2Sc2ccc3nnc(-c4ccccc4O)n3c2)n(-c2cccnc2)n1 [Example 182]	0.7 nM

Next, values leading:

IC50	SMILES
3.2 nM	Cc1ccc(-n2nc(C(C)(C)C)cc2NC(=O)NCc2ccccc2Sc2ccc3nnc(-c4ccccc4OCc4ccccc4)n3c2)cc1 [Example 116]
4.6 nM	Cc1cc(OCc2ccccc2)cc(-n2nc(C(C)(C)C)cc2NC(=O)NCc2ccccc2Sc2ccc3nnc(C(C)C)n3c2)c1 [Example 124]
3.2 nM	CC(C)c1ccccc1-c1nnc2ccc(Sc3ccccc3CNC(=O)Nc3cc(C(C)(C)C)nn3-c3ccc(OCCO)cc3)cn12 [Example 139]
1.8 nM	COc1ccccc1-c1nnc2ccc(Sc3ccccc3CNC(=O)Nc3cc(C(C)(C)SC)nn3-c3ccc(O)cc3)cn12 [Example 140]
1.4 nM	CC(C)(C)c1cc(NC(=O)NCc2ccccc2Sc2ccc3nnc(-c4ccccc4F)n3c2)n(-c2ccc(OCCO)cc2)n1 [Example 141]
1.2 nM	COc1ccccc1-c1nnc2ccc(Sc3ccccc3CNC(=O)Nc3cc(C(C)(C)C)nn3-c3ccc(O)cc3)cn12 [Example 143]
1.2 nM	CC(C)c1ccccc1-c1nnc2ccc(Sc3ccccc3CNC(=O)Nc3cc(C(C)(C)C)nn3-c3ccc(O)cc3)cn12 [Example 144]
0.9 nM	COc1ccccc1-c1nnc2ccc(Sc3ccccc3CNC(=O)Nc3cc(C(C)(C)C)nn3-c3cccc(O)c3)cn12 [Example 145]
4.8 nM	CSC(C)(C)c1cc(NC(=O)NCc2ccccc2Sc2ccc3nnc(-c4cccc(Cl)c4O)n3c2)n(-c2ccc(C)cc2)n1 [Example 153]

same assay, conditions: PBMC; LPS-stimulated human peripheral blood mononuclear cells, 18 hours incubation, TNFα in supernatant by ELISA; read-out: TNF IC50

IC50	SMILES
1.2 nM	CSC(C)(C)c1cc(NC(=O)NCc2ccccc2Sc2ccc3nnc(-c4ccccc4F)n3c2)n(-c2ccc(O)cc2)n1 [Example 109, N-(2-{[3-(2-Fluorophenyl)[1,2,4]triazolo[4,3-a]pyridin-6-yl]thio}benzyl)-N′-{1-(4-hydroxyphenyl)-3-[1-methyl-1-(methylthio)ethyl]-1H-pyrazol-5-yl}urea]
3.6 nM	CSc1ccc(-c2nnc3ccc(Sc4ccccc4CNC(=O)Nc4cc(C(C)(C)C)nn4-c4cccc(O)c4)cn23)cc1 [Example 114, N-[3-tert-Butyl-1-(3-hydroxyphenyl)-1H-pyrazol-5-yl]-N′-[2-({3-[4-(methylthio)phenyl][1,2,4]triazolo[4,3-a]pyridin-6-yl}thio)benzyl]urea]
